Assay results reported in patent publication US9204653B2, “5-fluoro pyrimidine derivatives” (DOW AGROSCIENCES LLC, priority 2008, dated 2015).
Like-named read-outs stand apart in the source and are kept apart here.

System: Mycosphaerella graminicola; Anamorph: Septoria tritici; Bayer Code SEPTTR
Test: Leaf blotch of wheat, foliar fungicide treatment, one day protectant (1DP) or three day curative (3DC)
Format: in vivo, Septoria tritici on wheat plants (variety Yuma)
Settings: Zymoseptoria tritici
[1] = 24 h, one day protectant (1DP), 25 ppm, rating of percent disease control, read-out: SETTTR 1DP 25 ppm
[2] = 24 h, one day protectant (1DP), rating of percent disease control, read-out: SEPTTR 1DP 100 ppm
[3] = 72 h, three day curative (3DC), 25 ppm, rating of percent disease control, read-out: SEPTTR 3DC 25 ppm
[4] = 72 h, three day curative (3DC), rating of percent disease control, read-out: SEPTTR 3DC 100 ppm
[5] = 24 h, one day protectant (1DP), 25 ppm (first 1DP column), percent control rating, read-out: SETTTR 1DP 25 ppm
[6] = 24 h, one day protectant (1DP), 25 ppm as printed (second 1DP column), percent control rating, read-out: SETTTR 1DP 25 ppm
[7] = 72 h, three day curative (3DC), 25 ppm, percent control rating, read-out: SEPTTR 3DC 25 ppm
[8] = 72 h, three day curative (3DC), percent control rating, read-out: SEPTTR 3DC 100 ppm
[9] = 24 h, % disease control rating, one day protectant
[10] = 24 h, one day protectant, 25 ppm, rating of percent disease control, read-out: SETTTR 1DP 25 ppm
[11] = 24 h, one day protectant, rating of percent disease control, read-out: SEPTTR 1DP 100 ppm
[12] = 72 h, three day curative, 25 ppm, rating of percent disease control, read-out: SEPTTR 3DC 25 ppm
[13] = 72 h, three day curative, rating of percent disease control, read-out: SEPTTR 3DC 100 ppm

Compound | pest or weed control at 25 ppm [1] [%] | pest or weed control at 100 ppm [2] [%] | pest or weed control at 25 ppm [3] [%] | pest or weed control at 100 ppm [4] [%] | pest or weed control at 25 ppm [10] [%] | pest or weed control at 100 ppm [11] [%] | pest or weed control at 25 ppm [12] [%] | pest or weed control at 100 ppm [13] [%] | other results
CC(C)COC(=O)Oc1ncc(F)c(/N=C/N(C)C)n1 [Compound 788] | 76 to 100 | 76 to 100 | 76 to 100 | 76 to 100 |  |  |  |  | 
CCC(Oc1ncc(F)c(N)n1)c1ccc(F)cc1 (centres unmarked) [Compound 513] | 76 to 100 | 76 to 100 | 76 to 100 | 76 to 100 |  |  |  |  | 
Cc1ccc(COc2ncc(F)c(NNc3nccc(C(F)(F)F)n3)n2)cc1 [Compound 1041] |  |  |  |  |  |  |  |  | pest or weed control at 25 ppm [5]: 0 to 25%; pest or weed control at 25 ppm [6]: 0 to 25%; pest or weed control at 25 ppm [7]: 0 to 25%; pest or weed control at 100 ppm [8]: 0 to 25%
Fc1ccccc1COc1ncc(F)c(NC2CC2)n1 [Compound 852] |  |  |  |  |  |  |  |  | pest or weed control at 50 ppm (24 h, % disease control rating, one day protectant, 50 ppm): 51 to 75%; pest or weed control at 200 ppm [9]: 76 to 100%
COc1ccc(COc2ncc(F)c(NCc3cccs3)n2)cc1 [Compound 906] |  |  |  |  |  |  |  |  | pest or weed control at 200 ppm [9]: 76 to 100%
CCCNC(=S)Nc1nc(OCc2ccc(OC)c(F)c2)ncc1F [Compound 552] |  |  |  |  | 0 to 25 | 76 to 100 | 0 to 25 | 76 to 100 | 
C=CCOc1ncc(F)c(NNc2ccccc2F)n1 [Compound 1077] |  |  |  |  |  |  |  |  | pest or weed control at 25 ppm [5]: 0 to 25%; pest or weed control at 25 ppm [6]: 0 to 25%; pest or weed control at 25 ppm [7]: 0 to 25%; pest or weed control at 100 ppm [8]: 26 to 50%
Nc1nc(OCc2ccc(Cl)c(Cl)c2)ncc1F [Compound 574] |  |  |  |  | 76 to 100 | 76 to 100 | 76 to 100 | 76 to 100 | 
OCNc1nc(OCc2cccc(F)c2)ncc1F [Compound 780] | 76 to 100 | 76 to 100 | 76 to 100 | 76 to 100 |  |  |  |  | 
C/C(=N\Nc1nc(OCc2ccc(C)cc2)ncc1F)c1ccc(C)o1 [Compound 718] |  |  |  |  | 26 to 50 | 76 to 100 | 26 to 50 | 26 to 50 | 
Nc1nc(OCc2cccc(OC(F)(F)F)c2)ncc1F [Compound 460] | 76 to 100 | 76 to 100 | 76 to 100 | 76 to 100 |  |  |  |  | 
COc1ccc(S(=O)(=O)Oc2ncc(F)c(N)n2)cc1 [Compound 660] |  |  |  |  | 76 to 100 | 76 to 100 | 26 to 50 | 0 to 25 | 
CC(=O)Nc1nc(OC(C)c2ccc(F)cc2)ncc1F (centres unmarked) [Compound 714] |  |  |  |  | 76 to 100 | 76 to 100 | 76 to 100 | 76 to 100 | 
Oc1ncc(F)c(N(O)Cc2ccccc2)n1 [Compound 1094] |  |  |  |  |  |  |  |  | pest or weed control at 25 ppm [5]: 0 to 25%; pest or weed control at 25 ppm [6]: 0 to 25%; pest or weed control at 25 ppm [7]: 26 to 50%; pest or weed control at 100 ppm [8]: 26 to 50%
CC[Si](CC)(CC)Nc1nc(OCc2ccccc2)ncc1F [Compound 656] |  |  |  |  | 76 to 100 | 76 to 100 | 76 to 100 | 76 to 100 | 
COc1ccc(COc2ncc(F)c(NC(=O)Nc3ccccc3F)n2)cc1F [Compound 519] | 0 to 25 | 0 to 25 | 0 to 25 | 0 to 25 |  |  |  |  | 
CCOC(=O)COC(=O)Nc1nc(OCc2cccc(C#N)c2)ncc1F [Compound 782] | 0 to 25 | 26 to 50 | 26 to 50 | 76 to 100 |  |  |  |  | 
N#Cc1cccc(COc2ncc(F)c(NCO)n2)c1 [Compound 153] |  |  |  |  |  |  |  |  | pest or weed control at 25 ppm (24 h, one day protectant (1DP), 25 ppm, percent disease control rating, read-out: SETTTR 1DP 25 ppm): 76 to 100%; pest or weed control at 100 ppm (24 h, one day protectant (1DP), percent disease control rating, read-out: SEPTTR 1DP 100 ppm): 76 to 100%; pest or weed control at 25 ppm (72 h, three day curative (3DC), 25 ppm, percent disease control rating, read-out: SEPTTR 3DC 25 ppm): 76 to 100%; pest or weed control at 100 ppm (72 h, three day curative (3DC), percent disease control rating, read-out: SEPTTR 3DC 100 ppm): 76 to 100%
C/C(=N\Oc1ncc(F)c(N)n1)c1ccc(Cl)cc1 [Compound 1000] |  |  |  |  |  |  |  |  | pest or weed control at 25 ppm [5]: 76 to 100%; pest or weed control at 25 ppm [6]: 76 to 100%; pest or weed control at 25 ppm [7]: 76 to 100%; pest or weed control at 100 ppm [8]: 76 to 100%
